Earlier results as cited in article PMC8513935.

Assay: log P octanol/water from commercial databases, averaged (the ESI)
Settings: Octanol (wet), 25 C

| log K of transfer, water to solvent [log10 K] | SMILES |
| --- | --- |
| 3.7 | CCCc1ccccc1 |
| 2.4 | C=CCC |
| 4.5 | CCCCCCC |

Assay: experimental, compiled by the authors from the literature (the ESI cites the sources)
Settings: 1,2-Dichloroethane, 25 C

| log K of transfer, gas to solvent [log10 K] | SMILES |
| --- | --- |
| 2.98 | CCCCCCC |

Same assay, conditions: 2-Methylpropan-1-ol, 25 C

| log K of transfer, gas to solvent [log10 K] | SMILES |
| --- | --- |
| 1.45 | C=CCC |
| 2.87 | CCCCCCC |

Same assay, conditions: 2-Methylpropan-2-ol, 25 C

| log K of transfer, gas to solvent [log10 K] | SMILES |
| --- | --- |
| 1.49 | C=CCC |
| 2.9 | CCCCCCC |

Same assay, conditions: 3-Methylbutan-1-ol, 25 C

| log K of transfer, gas to solvent [log10 K] | SMILES |
| --- | --- |
| 1.46 | C=CCC |
| 2.89 | CCCCCCC |

Same assay, conditions: Acetonitrile, 25 C

| log K of transfer, gas to solvent [log10 K] | SMILES |
| --- | --- |
| 2.35 | CCCCCCC |

Same assay, conditions: Butan-1-ol, 25 C

| log K of transfer, gas to solvent [log10 K] | SMILES |
| --- | --- |
| 1.47 | C=CCC |
| 2.88 | CCCCCCC |

Same assay, conditions: Butan-2-ol, 25 C

| log K of transfer, gas to solvent [log10 K] | SMILES |
| --- | --- |
| 1.46 | C=CCC |

Same assay, conditions: Butanone, 25 C

| log K of transfer, gas to solvent [log10 K] | SMILES |
| --- | --- |
| 3.03 | CCCCCCC |

Same assay, conditions: Butyronitrile, 25 C

| log K of transfer, gas to solvent [log10 K] | SMILES |
| --- | --- |
| 2.82 | CCCCCCC |

Same assay, conditions: CCl4, 25 C

| log K of transfer, gas to solvent [log10 K] | SMILES |
| --- | --- |
| 1.83 | C=CCC |
| 3.48 | CCCCCCC |

Same assay, conditions: Chlorobenzene, 25 C

| log K of transfer, gas to solvent [log10 K] | SMILES |
| --- | --- |
| 3.47 | CCCCCCC |

Same assay, conditions: Chloroform, 25 C

| log K of transfer, gas to solvent [log10 K] | SMILES |
| --- | --- |
| 3.39 | CCCCCCC |

Same assay, conditions: Cyclohexanone, 25 C

| log K of transfer, gas to solvent [log10 K] | SMILES |
| --- | --- |
| 2.95 | CCCCCCC |

Same assay, conditions: Di-n-butyl ether, 25 C

| log K of transfer, gas to solvent [log10 K] | SMILES |
| --- | --- |
| 3.38 | CCCCCCC |

Same assay, conditions: Dichloromethane, 25 C

| log K of transfer, gas to solvent [log10 K] | SMILES |
| --- | --- |
| 3.27 | CCCCCCC |

Same assay, conditions: Ethanol, 25 C

| log K of transfer, gas to solvent [log10 K] | SMILES |
| --- | --- |
| 2.71 | CCCCCCC |

Same assay, conditions: Hexadecane, 25 C

| log K of transfer, gas to solvent [log10 K] | SMILES |
| --- | --- |
| 4.23 | CCCc1ccccc1 |
| 1.53 | C=CCC |
| 3.17 | CCCCCCC |

Same assay, conditions: Hexan-1-ol, 25 C

| log K of transfer, gas to solvent [log10 K] | SMILES |
| --- | --- |
| 2.93 | CCCCCCC |

Same assay, conditions: Hexane, 25 C

| log K of transfer, gas to solvent [log10 K] | SMILES |
| --- | --- |
| 4.07 | CCCc1ccccc1 |
| 1.83 | C=CCC |
| 3.5 | CCCCCCC |

Same assay, conditions: Methanol, 25 C

| log K of transfer, gas to solvent [log10 K] | SMILES |
| --- | --- |
| 3.91 | CCCc1ccccc1 |
| 2.5 | CCCCCCC |

Same assay, conditions: Octan-1-ol, 25 C

| log K of transfer, gas to solvent [log10 K] | SMILES |
| --- | --- |
| 4.09 | CCCc1ccccc1 |
| 2.95 | CCCCCCC |

Same assay, conditions: Pentan-1-ol, 25 C

| log K of transfer, gas to solvent [log10 K] | SMILES |
| --- | --- |
| 1.47 | C=CCC |

Same assay, conditions: Perfluoroalkane, 25 C

| log K of transfer, gas to solvent [log10 K] | SMILES |
| --- | --- |
| 2.25 | CCCCCCC |

Same assay, conditions: Propan-1-ol, 25 C

| log K of transfer, gas to solvent [log10 K] | SMILES |
| --- | --- |
| 1.47 | C=CCC |
| 2.74 | CCCCCCC |

Same assay, conditions: Propan-2-ol, 25 C

| log K of transfer, gas to solvent [log10 K] | SMILES |
| --- | --- |
| 3.93 | CCCc1ccccc1 |
| 1.45 | C=CCC |
| 2.74 | CCCCCCC |

Same assay, conditions: Propanone, 25 C

| log K of transfer, gas to solvent [log10 K] | SMILES |
| --- | --- |
| 2.81 | CCCCCCC |

Same assay, conditions: Propionitrile, 25 C

| log K of transfer, gas to solvent [log10 K] | SMILES |
| --- | --- |
| 2.67 | CCCCCCC |

Same assay, conditions: Tetrahydrofuran, 25 C

| log K of transfer, gas to solvent [log10 K] | SMILES |
| --- | --- |
| 4.87 | CCCc1ccccc1 |
| 3.34 | CCCCCCC |

Same assay, conditions: Toluene, 25 C

| log K of transfer, gas to solvent [log10 K] | SMILES |
| --- | --- |
| 3.33 | CCCCCCC |

Same assay, conditions: Water, 25 C

| log K of transfer, gas to solvent [log10 K] | SMILES |
| --- | --- |
| 0.39 | CCCc1ccccc1 |
| -1.01 | C=CCC |
| -1.96 | CCCCCCC |

Assay: derived by the authors as gas->solvent minus gas->water (a hypothetical dry solvent; the ESI), not a two-phase measurement
Settings: 1,2-Dichloroethane, 25 C

| log K of transfer, water to solvent [log10 K] | SMILES |
| --- | --- |
| 4.94 | CCCCCCC |

Same assay, conditions: 2-Methylpropan-1-ol, 25 C

| log K of transfer, water to solvent [log10 K] | SMILES |
| --- | --- |
| 2.46 | C=CCC |
| 4.83 | CCCCCCC |

Same assay, conditions: 2-Methylpropan-2-ol, 25 C

| log K of transfer, water to solvent [log10 K] | SMILES |
| --- | --- |
| 2.5 | C=CCC |
| 4.86 | CCCCCCC |

Same assay, conditions: 3-Methylbutan-1-ol, 25 C

| log K of transfer, water to solvent [log10 K] | SMILES |
| --- | --- |
| 2.47 | C=CCC |
| 4.85 | CCCCCCC |

Same assay, conditions: Acetone, 25 C

| log K of transfer, water to solvent [log10 K] | SMILES |
| --- | --- |
| 4.77 | CCCCCCC |

Same assay, conditions: Acetonitrile, 25 C

| log K of transfer, water to solvent [log10 K] | SMILES |
| --- | --- |
| 4.31 | CCCCCCC |

Same assay, conditions: Butan-1-ol, 25 C

| log K of transfer, water to solvent [log10 K] | SMILES |
| --- | --- |
| 2.48 | C=CCC |
| 4.84 | CCCCCCC |

Same assay, conditions: Butan-2-ol, 25 C

| log K of transfer, water to solvent [log10 K] | SMILES |
| --- | --- |
| 2.47 | C=CCC |

Same assay, conditions: Butanone, 25 C

| log K of transfer, water to solvent [log10 K] | SMILES |
| --- | --- |
| 4.99 | CCCCCCC |

Same assay, conditions: Butyronitrile, 25 C

| log K of transfer, water to solvent [log10 K] | SMILES |
| --- | --- |
| 4.78 | CCCCCCC |

Same assay, conditions: CCl4, 25 C

| log K of transfer, water to solvent [log10 K] | SMILES |
| --- | --- |
| 2.84 | C=CCC |
| 5.44 | CCCCCCC |

Same assay, conditions: Chlorobenzene, 25 C

| log K of transfer, water to solvent [log10 K] | SMILES |
| --- | --- |
| 5.43 | CCCCCCC |

Same assay, conditions: Chloroform, 25 C

| log K of transfer, water to solvent [log10 K] | SMILES |
| --- | --- |
| 5.35 | CCCCCCC |

Same assay, conditions: Cyclohexanone, 25 C

| log K of transfer, water to solvent [log10 K] | SMILES |
| --- | --- |
| 4.91 | CCCCCCC |

Same assay, conditions: Di-n-butyl ether, 25 C

| log K of transfer, water to solvent [log10 K] | SMILES |
| --- | --- |
| 5.34 | CCCCCCC |

Same assay, conditions: Dichloromethane, 25 C

| log K of transfer, water to solvent [log10 K] | SMILES |
| --- | --- |
| 5.23 | CCCCCCC |

Same assay, conditions: Ethanol, 25 C

| log K of transfer, water to solvent [log10 K] | SMILES |
| --- | --- |
| 4.67 | CCCCCCC |

Same assay, conditions: Hexadecane, 25 C

| log K of transfer, water to solvent [log10 K] | SMILES |
| --- | --- |
| 3.84 | CCCc1ccccc1 |
| 2.54 | C=CCC |
| 5.13 | CCCCCCC |

Same assay, conditions: Hexan-1-ol, 25 C

| log K of transfer, water to solvent [log10 K] | SMILES |
| --- | --- |
| 4.89 | CCCCCCC |

Same assay, conditions: Hexane, 25 C

| log K of transfer, water to solvent [log10 K] | SMILES |
| --- | --- |
| 3.68 | CCCc1ccccc1 |
| 2.83 | C=CCC |
| 5.46 | CCCCCCC |

Same assay, conditions: Methanol, 25 C

| log K of transfer, water to solvent [log10 K] | SMILES |
| --- | --- |
| 3.52 | CCCc1ccccc1 |
| 4.46 | CCCCCCC |

Same assay, conditions: Octan-1-ol(dry), 25 C

| log K of transfer, water to solvent [log10 K] | SMILES |
| --- | --- |
| 3.7 | CCCc1ccccc1 |
| 4.91 | CCCCCCC |

Same assay, conditions: Pentan-1-ol, 25 C

| log K of transfer, water to solvent [log10 K] | SMILES |
| --- | --- |
| 2.48 | C=CCC |

Same assay, conditions: Perfluoroalkane, 25 C

| log K of transfer, water to solvent [log10 K] | SMILES |
| --- | --- |
| 4.21 | CCCCCCC |

Same assay, conditions: Propan-1-ol, 25 C

| log K of transfer, water to solvent [log10 K] | SMILES |
| --- | --- |
| 2.48 | C=CCC |
| 4.7 | CCCCCCC |

Same assay, conditions: Propan-2-ol, 25 C

| log K of transfer, water to solvent [log10 K] | SMILES |
| --- | --- |
| 3.54 | CCCc1ccccc1 |
| 2.46 | C=CCC |
| 4.7 | CCCCCCC |

Same assay, conditions: Propionitrile, 25 C

| log K of transfer, water to solvent [log10 K] | SMILES |
| --- | --- |
| 4.63 | CCCCCCC |

Same assay, conditions: Tetrahydrofuran, 25 C

| log K of transfer, water to solvent [log10 K] | SMILES |
| --- | --- |
| 4.48 | CCCc1ccccc1 |
| 5.3 | CCCCCCC |

Same assay, conditions: Toluene, 25 C

| log K of transfer, water to solvent [log10 K] | SMILES |
| --- | --- |
| 5.29 | CCCCCCC |
